Columns and labels:
Experiment in all cases: Post-emergence efficacy (glasshouse, spray application)
Type in all cases: in vivo
[1] = test system: Amaranthus palmeri (AMAPA); conditions: 312 h, Application rate 500 g/Ha, evaluated after 13 days, 100=total damage to plant, 0=no damage to plant, read-out: Control of weed species after post-emergence application, AMAPA
Description: (§1) Seeds of a variety of test species were sown in standard soil in pots. After cultivation for 14 days (post-emergence) under controlled conditions in a glasshouse (at 24/16° C., day/night; 14 hours light; 65 humidity), the plants were sprayed with an aqueous spray solution derived from the dissolution of the technical active ingredient formula (I) in a small amount of acetone and a special solvent and emulsifier mixture referred to as IF50 (11.12% Emulsogen EL360 TM+44.44% N-methylpyrrolidone+44.44% Dowanol DPM glycol ether), to create a 50 g/l solution which was then diluted to required concentration using a solution of 0.25% or 1% Empicol ESC70 (Sodium lauryl ether sulphate)+1% ammonium sulphate in water as diluent.
(§2) The test plants were then grown in a glasshouse under controlled conditions (at 24/16° C., day/night; 14 hours light; 65% humidity) and watered twice daily. After 13 days the test was evaluated (100=total damage to plant; 0=no damage to plant).
(§3) Ipomoea hederacea (IPOHE), Euphorbia heterophylla (EPHHL), Chenopodium album (CHEAL), Amaranthus palmeri (AMAPA), Lolium perenne (LOLPE), Digitaria sanguinalis (DIGSA), Eleusine indica (ELEIN), Echinochloa crus-galli (ECHCG), Setaria faberi (SETFA)

[2] = test system: Chenopodium album (CHEAL); conditions: 312 h, Application rate 500 g/Ha, evaluated after 13 days, 100=total damage to plant, 0=no damage to plant, read-out: Control of weed species after post-emergence application, CHEAL
Description: as §1, §2, §3

[3] = test system: Digitaria sanguinalis (DIGSA); conditions: 312 h, Application rate 500 g/Ha, evaluated after 13 days, 100=total damage to plant, 0=no damage to plant, read-out: Control of weed species after post-emergence application, DIGSA
Description: as §1, §2, §3

[4] = test system: Echinochloa crus-galli (ECHCG); conditions: 312 h, Application rate 500 g/Ha, evaluated after 13 days, 100=total damage to plant, 0=no damage to plant, read-out: Control of weed species after post-emergence application, ECHCG
Description: as §1, §2, §3

Eleusine indica (ELEIN) = conditions: 312 h, Application rate 500 g/Ha, evaluated after 13 days, 100=total damage to plant, 0=no damage to plant, read-out: Control of weed species after post-emergence application, ELEIN
Description: as §1, §2, §3

[5] = test system: Euphorbia heterophylla (EPHHL); conditions: 312 h, Application rate 500 g/Ha, evaluated after 13 days, 100=total damage to plant, 0=no damage to plant, read-out: Control of weed species after post-emergence application, EPHHL
Description: as §1, §2, §3

[6] = test system: Ipomoea hederacea (IPOHE); conditions: 312 h, Application rate 500 g/Ha, evaluated after 13 days, 100=total damage to plant, 0=no damage to plant, read-out: Control of weed species after post-emergence application, IPOHE
Description: as §1, §2, §3

Lolium perenne (LOLPE) = conditions: 312 h, Application rate 500 g/Ha, evaluated after 13 days, 100=total damage to plant, 0=no damage to plant, read-out: Control of weed species after post-emergence application, LOLPE
Description: as §1, §2, §3

Setaria faberi (SETFA) = conditions: 312 h, Application rate 500 g/Ha, evaluated after 13 days, 100=total damage to plant, 0=no damage to plant, read-out: Control of weed species after post-emergence application, SETFA
Description: as §1, §2, §3

Compound | pest or weed control at 500 g/ha [1] [%] | pest or weed control at 500 g/ha [2] [%] | pest or weed control at 500 g/ha [3] [%] | pest or weed control at 500 g/ha [4] [%] | pest or weed control at 500 g/ha (Eleusine indica (ELEIN)) [%] | pest or weed control at 500 g/ha [5] [%] | pest or weed control at 500 g/ha [6] [%] | pest or weed control at 500 g/ha (Lolium perenne (LOLPE)) [%] | pest or weed control at 500 g/ha (Setaria faberi (SETFA)) [%]
CS(=O)(=O)N(CC[n+]1ccc(-c2ncccn2)cn1)CC(=O)O [Compound A19, 2-[methylsulfonyl-[2-(4-pyrimidin-2-ylpyridazin-1-ium-1-yl)ethyl]amino]acetic acid 2,2,2-trifluoroacetate] | 100 | 90 | 70 | 40 | 100 | 80 | 70 | 30 | 70
O=C(C[n+]1ccc(-c2ncccn2)cn1)NC(Cc1ccccc1)C(=O)O (stereo not drawn) [Compound A11] | 100 | 50 | 90 | 70 | 90 | 90 | 20 | 20 | 50
O=C(O)CNC(=O)C[n+]1ccc(-c2cnccn2)cn1 [Compound A35] | 70 | 40 | 100 | 50 | 60 | 40 | 20 | 0 | 60
O=C(O)COCC[n+]1ccc(-c2ncccn2)cn1 [Compound A4] | 100 | 100 | 90 | 90 | 100 | 100 | 90 | 80 | 100
O=C(O)CNC(=O)CC[n+]1ccc(-c2ccncn2)cn1 [Compound A23] | 100 | 70 | 100 | 60 | 100 | 90 | 100 | 40 | 60
CN(CC[n+]1ccc(-c2ncccn2)cn1)S(=O)(=O)CC(=O)O [Compound A30, 2-[methyl-[2-(4-pyrimidin-2-ylpyridazin-1-ium-1-yl)ethyl]-sulfamoyl]acetic acid chloride] | 100 | 80 | 70 | 100 | 40 | 90 | 20 | 50 | 60
CC(NC(=O)CC[n+]1ccc(-c2ncccn2)cn1)C(=O)O (stereo not drawn) [Compound A25] | 100 | 100 | 100 | 90 | 100 | 100 | 40 | 70 | 90
O=C(O)CNC(=O)C[n+]1ccc(-c2ccncc2)cn1 [Compound A20] | 100 | 90 | 70 | 60 | 60 | 90 | 70 | 30 | 70
CC(C)(NC(=O)C[n+]1ccc(-c2ncccn2)cn1)C(=O)O [Compound A37] | 100 | 50 | 70 | 40 | 70 | 80 | 40 | 70 | 80

Source: patent US20220104492A1, “PYRIDAZINIUM COMPOUNDS FOR USE IN A METHOD OF CONTROLLING UNWANTED PLANT GROWTH” (SYNGENTA CROP PROTECTION AG, priority 2019, published 2022)
